Measured values published in US7759369B2, “Pyridine compounds for the treatment of prostaglandin mediated diseases” (Glaxo Group Limited, priority 2004, dated 2010).
Structures can show the parent of a compound that is named as a salt.

Assays:
[1] = target: T1, EP1 receptors (Homo sapiens, UniProt P34995); test: Binding assay for the human prostanoid EP1 receptor (competition with [3H]-PGE2); parameters: expressed in transfected cells; host or cells: CHO-K1 (membrane fraction); settings: averages of a number of experiments; Example 3 as sodium salt; read-out: pIC50 value in the binding assay for the human prostanoid EP1 receptor (converted)
T1 sequence (P34995 1-402): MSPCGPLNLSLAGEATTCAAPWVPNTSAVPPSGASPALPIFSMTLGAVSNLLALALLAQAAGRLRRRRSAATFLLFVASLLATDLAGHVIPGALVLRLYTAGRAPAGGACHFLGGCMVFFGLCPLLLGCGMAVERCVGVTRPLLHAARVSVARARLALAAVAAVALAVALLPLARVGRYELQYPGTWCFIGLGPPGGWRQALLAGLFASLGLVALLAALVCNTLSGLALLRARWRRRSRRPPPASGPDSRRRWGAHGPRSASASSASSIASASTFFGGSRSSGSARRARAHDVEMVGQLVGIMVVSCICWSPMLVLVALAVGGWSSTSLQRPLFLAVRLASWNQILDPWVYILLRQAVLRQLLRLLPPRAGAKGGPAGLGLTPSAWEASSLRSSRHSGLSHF
Experimental: Binding Assay for the Human Prostanoid EP1 Receptor
Competition assay using [^3H]-PGE2.
Compound potencies are determined using a radioligand binding assay. In this assay compound potencies are determined from their ability to compete with tritiated prostaglandin E2 ([^3H]-PGE2) for binding to the human EP1 receptor.
This assay utilises Chinese hamster ovary-K1 (CHO-K1) cells into which a stable vector containing the EP1 cDNA has previously been transfected. Cells are cultured in suitable flasks containing culture medium such as DMEM:F-12 supplemented with 10% v/v foetal calf serum, 2 mM L-glutamine, 0.25 mg/ml geneticin, 10 μg/ml puromycin and 10 μM indomethacin.
Cells are detached from the culture flasks by incubation in calcium and magnesium free phosphate buffered saline containing 1 mM disodium ethylenediaminetetraacetic acid (Na2EDTA) and 10 μM indomethacin for 5 min. The cells are isolated by centrifugation at 250×g for 5 mins and suspended in an ice cold buffer such as 50 mM Tris, 1 mM Na2EDTA, 140 mM NaCl, 10 μM indomethacin (pH 7.4). The cells are homogenised using a Polytron tissue disrupter (2×10s burst at full setting), centrifuged at 48,000×g for 20 mins and the pellet containing the membrane fraction is washed (optional) three times by suspension and centrifugation at 48,000×g for 20 mins. The final membrane pellet is suspended in an assay buffer such as 10 mM 2-[N-morpholino]ethanesulphonic acid, 1 mM Na2EDTA, 10 mM MgCl2 (pH 6). Aliquots are frozen at −80° C. until required.
For the binding assay the cell membranes, competing compounds and [^3H]-PGE2 (3 nM final assay concentration) are incubated in a final volume of 100 μl for 30 min at 30° C. All reagents are prepared in assay buffer. Reactions are terminated by rapid vacuum filtration over GF/B filters using a Brandell cell harvester. The filters are washed with ice cold assay buffer, dried and the radioactivity retained on the filters is measured by liquid scintillation counting in Packard TopCount scintillation counter.
The data are analysed using non linear curve fitting techniques to determine the concentration of compound producing 50% inhibition of specific binding (IC50).

[2] = target: T2, EP3 receptors (Homo sapiens, UniProt P43115); test: human EP3 calcium mobilisation assay (CHO-K1 cells, PGE2, FLIPR); assay type: cell-based; settings: free bases or sodium salts; averages of a number of experiments; read-out: functional pKi value, human EP3 calcium mobilisation assay (converted)
T2 construct: expressed in transfected cells; host or cells: CHO-K1
T2 sequence (P43115 1-390): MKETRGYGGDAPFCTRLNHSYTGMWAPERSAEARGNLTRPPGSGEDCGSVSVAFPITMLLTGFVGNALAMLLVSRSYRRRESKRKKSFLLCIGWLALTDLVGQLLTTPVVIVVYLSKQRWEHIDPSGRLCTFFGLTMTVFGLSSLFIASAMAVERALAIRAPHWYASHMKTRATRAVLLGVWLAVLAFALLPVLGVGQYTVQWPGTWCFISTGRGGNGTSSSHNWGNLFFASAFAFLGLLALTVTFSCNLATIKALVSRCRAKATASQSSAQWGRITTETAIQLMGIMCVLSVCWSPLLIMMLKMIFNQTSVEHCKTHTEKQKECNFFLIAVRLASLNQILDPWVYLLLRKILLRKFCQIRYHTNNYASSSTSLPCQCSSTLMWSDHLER
Experimental: Briefly, the antagonist properties of compounds are assessed by their ability to inhibit the mobilisation of intracellular calcium ([Ca^2+]i) in response to activation of EP1 or EP3 receptors by the natural agonist hormone prostaglandin E2 (PGE2). Increasing concentrations of antagonist reduce the amount of calcium that a given concentration of PGE2 can mobilise. The net effect is to displace the PGE2 concentration-effect curve to higher concentrations of PGE2. The amount of calcium produced is assessed using a calcium-sensitive fluorescent dye such as Fluo-4, AM and a suitable instrument such as a Fluorimetric Imaging Plate Reader (FLIPR). Increasing amounts of [Ca^2+]i produced by receptor activation increase the amount of fluorescence produced by the dye and give rise to an increasing signal. The signal may be detected using the FLIPR instrument and the data generated may be analysed with suitable curve-fitting software.
The human EP1 or EP3 calcium mobilisation assay (hereafter referred to as ‘the calcium assay’) utilises Chinese hamster ovary-K1 (CHO-K1) cells into which a stable (pCIN; BioTechniques 20 (1996): 102-110) vector containing either EP1 or EP3 cDNA has previously been transfected. Cells are cultured in suitable flasks containing culture medium such as DMEM:F-12 supplemented with 10% v/v foetal calf serum, 2 mM L-glutamine, 0.25 mg/ml geneticin, 100 μM flurbiprofen and 10 µg/ml puromycin.
For assay, cells are harvested using a proprietary reagent that dislodges cells such as Versene. Cells are re-suspended in a suitable quantity of fresh culture media for introduction into a 384-well plate. Following incubation for 24 hours at 37° C. the culture media is replaced with a medium containing Fluo-4 and the detergent pluronic acid, and a further incubation takes place. Concentrations of compounds are then added to the plate in order to construct concentration-effect curves. This may be performed on the FLIPR in order to assess the agonist properties of the compounds. Concentrations of PGE2 are then added to the plate in order to assess the antagonist properties of the compounds.
The data so generated may be analysed by means of a computerised curve-fitting routine. The concentration of compound that elicits a half-maximal inhibition of the calcium mobilisation induced by PGE2 (pIC50) may then be estimated.

SMILES	IC50 [1] [nM]	Ki [2] [nM]
O=C(O)c1cccc(Cc2cc(Cl)ccc2OCc2ccc(Cl)cc2F)n1 [Example 3, Sodium 6-[(5-chloro-2-{[(4-chloro-2-fluorophenyl)methyl]oxy}phenyl)methyl]-2-pyridinecarboxylate]	≤ 31.6	–
O=C(O)c1cccc(Cc2cc(Cl)ccc2OCc2ccc(F)cc2F)n1 [Example 4, Sodium 6-[(5-chloro-2-{[(2,4-difluorophenyl)methyl]oxy}phenyl)methyl]-2-pyridinecarboxylate]	≤ 31.6	> 10000
O=C(O)c1cccc(Cc2cc(Cl)ccc2OCc2cc(F)c(F)cc2F)n1 [Example 10, Sodium 6-[(5-chloro-2-{[(2,4,5-trifluorophenyl)methyl]oxy}phenyl)methyl]-2-pyridinecarboxylate]	≤ 31.6	> 10000
O=C(O)c1cccc(Cc2cc(Cl)ccc2OCc2ccc(F)cc2Cl)n1 [Example 11, Sodium 6-[(5-chloro-2-{[(2-chloro-4-fluorophenyl)methyl]oxy}phenyl)methyl]-2-pyridinecarboxylate]	≤ 31.6	> 10000
O=C(O)c1cccc(Cc2cc(Cl)ccc2OCc2ccc(Cl)cc2Cl)n1 [Example 12, Sodium 6-[(5-chloro-2-{[(2,4-dichlororophenyl)methyl]oxy}phenyl)methyl]-2-pyridinecarboxylate]	≤ 31.6	–
O=C(O)c1cccc(Cc2cc(Cl)ccc2OCC2CCCC2)n1 [Example 14, Sodium 6-({5-chloro-2-[(cyclopentylmethyl)oxy]phenyl}methyl)-2-pyridinecarboxylate]	≤ 31.6	–
O=C(NS(=O)(=O)c1ccccc1)c1cccc(Cc2cc(Cl)ccc2OCc2ccc(Cl)cc2F)n1 [Example 28, 6-[(5-chloro-2-{[(4-chloro-2-fluorophenyl)methyl]oxy}phenyl)-methyl]-N-(phenylsulphonyl)-2-pyridinecarboxamide]	≤ 31.6	> 10000
CS(=O)(=O)NC(=O)c1cccc(Cc2cc(Cl)ccc2OCc2ccc(Cl)cc2F)n1 [Example 29, 6-[(5-Chloro-2-{[(4-chloro-2-fluorophenyl)methyl]oxy}-phenyl)methyl]-N-(methylsulphonyl)-2-pyridinecarboxamide]	≤ 31.6	> 10000
CCCS(=O)(=O)NC(=O)c1cccc(Cc2cc(Cl)ccc2OCc2ccc(Cl)cc2F)n1 [Example 30, 6-[(5-Chloro-2-{[(4-chloro-2-fluorophenyl)methyl]oxy}-phenyl)methyl]-N-(propylsulphonyl)-2-pyridinecarboxamide]	≤ 31.6	> 10000
O=C(NS(=O)(=O)c1ccc(Br)cc1)c1cccc(Cc2cc(Cl)ccc2OCc2ccc(Cl)cc2F)n1 [Example 33, N-[(4-Bromophenyl)sulphonyl]-6-[(5-chloro-2-{[(4-chloro-2-fluorophenyl)methyl]oxy}phenyl)-methyl]-2-pyridinecarboxamide]	≤ 31.6	–
O=C(NS(=O)(=O)c1cccc(Br)c1)c1cccc(Cc2cc(Cl)ccc2OCc2ccc(Cl)cc2F)n1 [Example 34, N-[(3-Bromophenyl)sulphonyl]-6-[(5-chloro-2-{[(4-chloro-2-fluorophenyl)methyl]oxy}phenyl)-methyl]-2-pyridinecarboxamide]	≤ 31.6	–
Cc1noc(C)c1S(=O)(=O)NC(=O)c1cccc(Cc2cc(Cl)ccc2OCc2ccc(Cl)cc2F)n1 [Example 36, 6-[(5-Chloro-2-{[(4-chloro-2-fluorophenyl)methyl]oxy}-phenyl)methyl]-N-[(3,5-dimethyl-4-isoxazolyl)sulphonyl]-2-pyridinecarboxamide]	≤ 31.6	> 10000
Fc1cc(Cl)ccc1COc1ccc(Cl)cc1Cc1cccc(-c2nnn[nH]2)n1 [Example 38, 2-[(5-Chloro-2-{[(4-chloro-2-fluorophenyl)methyl]oxy}phenyl)-methyl]-6-(1H-tetrazol-5-yl)pyridine]	≤ 31.6	–
Cc1ccc(C(=O)O)nc1Cc1cc(Cl)ccc1OCc1ccc(Cl)cc1F [Example 39, 6-[(5-Chloro-2-{[(4-chloro-2-fluorophenyl)methyl]oxy}-phenyl)methyl]-5-methyl-2-pyridinecarboxylic acid, sodium salt]	≤ 31.6	–
